# Measurements reported in US8673908B2, “Kynurenine production inhibitor” (Kyowa Hakko Kirin Co., Ltd., priority 2008, dated 2014).
# Tested on: kynurenine production in IFN-γ-treated KATO-III cells
# Assay: Inhibitory activity on kynurenine production (Test Example 1)
# Format: cell-based
# Details: Homo sapiens, IFN-γ treatment, culture for 96 hours, read-out: IC50 value, inhibition of kynurenine production
# Procedure: This assay was performed according to a method modified from the method described in the Journal of Biological Chemistry (J. Biol. Chem.), vol. 263, pp. 2041-2048 (1988). Culture of KATO-III derived from human gastric cancer cells was performed by use of RPMI 1640 (GIBCO, 11875) supplemented with 10 vol % FBS (GIBCO, 10091-148, lot. 665285). 1 μL of a DMSO solution of the test substance was diluted with 199 μL of the culture medium, and the diluted solution was added to wells of a 384 well plate (10 μL/well). Then, IFN-γ (Sigma, 1-3265) was added to the culture medium so that the concentration of IFN-γ was 31.25 ng/mL, and the KATO-III cells were suspended at 50,000 cells/ml, in the culture medium. 40 μL of the suspension was added to each well (2,000 cells/well), and culture of the KATO-III cells was performed at 37° C. under a 5% CO2 atmosphere for 96 hours. The final concentration of DMSO was limited to 0.1 vol % or less so that DMSO itself might not affect the kynurenine concentration measured by this assay. After the culture, 10 μL of a 30 w/v % aqueous trichloroacetic acid solution was added to each well, and incubation was performed at 65° C. for 30 minutes. The plate was centrifuged at 2,500×g for 5 minutes, and then 15 μL of the supernatant in each well was transferred into another 384 well plate. To each of the transferred supernatants, 15 μL of a 2 w/v % solution of p-dimethylaminobenzaldehyde in acetic acid was added, incubation was performed at 65° C. for 20 minutes, and then the absorbance at 480 nm was measured.
# [formula] Sample: the absorbance value of the well to which a DMSO solution containing the test substance was added and in which cells were treated with IFN-γ. Blank: the absorbance value of the well to which only DMSO, not the test substance was added and in which cells were treated with IFN-γ. Control: the absorbance value of the well to which only DMSO, not the test substance was added and in which cells were not treated with IFN-γ.
# In this assay, expression of IDO in KATO-III cells is induced by IFN-γ treatment and then kynurenine in the culture medium is quantified. It is known that the kynurenine concentration in a culture medium increases in proportion to the enzymatic activity of intracellular IDO (for example, the Journal of Biological Chemistry (J. Biol. Chem.), vol. 263, pp. 2041-2048 (1988)). […] It is known that kynurenine production is inhibited by IDO inhibitors (for example, the Journal of Clinical Investigation (J. Clin. Invest.), vol. 117, No. 5, pp. 1147-1154 […]), and thus it is expected that Compound (I) also has an inhibitory effect on IDO.
row,Structure (SMILES),IC50
1,"O=S(=O)(Nc1nc2ccccc2nc1OC(c1ccc(N2CCCC2)nc1)C(F)(F)F)c1ccccc1Cl (centres unmarked) [Compound 93, 2-chloro-N-{3-{2,2,2-trifluoro-1-[6-(pyrrolidin-1-yl)-pyridin-3-yl]ethoxy}quinoxalin-2-yl}benzenesulfonamide]",< 1000 nM
2,"CCCS(=O)(=O)Nc1nc2ccccc2nc1OC(c1cccnc1)C1(F)CCOCC1 (centres unmarked) [Compound 94, N-{3-[4-fluorotetrahydropyran-4-yl(pyridin-3-yl)methoxy]-quinoxalin-2-yl}propane-1-sulfonamide]",< 1000 nM
3,"Cn1cc(C(Oc2nc3ccccc3nc2NS(=O)(=O)c2cccc(Cl)c2Cl)C(F)(F)F)cn1 (centres unmarked) [Compound 96, 2,3-dichloro-N-{3-[2,2,2-trifluoro-1-(1-methyl-1H-pyrazol-4-yl)ethoxy]quinoxalin-2-yl}benzenesulfonamide]",< 1000 nM
4,"O=S(=O)(Nc1nc2ccccc2nc1OC(c1cncs1)C(F)(F)F)c1cccc(Cl)c1Cl (centres unmarked) [Compound 98, 2,3-dichloro-N-{3-[2,2,2-trifluoro-1-(thiazol-5-yl)ethoxy]-quinoxalin-2-yl}benzenesulfonamide]",< 1000 nM
5,"O=S(=O)(Nc1nc2ccccc2nc1OC(c1nccs1)C(F)(F)F)c1cccc(Cl)c1Cl (centres unmarked) [Compound 99, 2,3-dichloro-N-{3-[2,2,2-trifluoro-1-(thiazol-2-yl)ethoxy]-quinoxalin-2-yl}benzenesulfonamide]",< 1000 nM
6,"O=S(=O)(Nc1nc2ccccc2nc1OC(c1cccs1)C(F)(F)F)c1cccc(Cl)c1Cl (centres unmarked) [Compound 100, 2,3-dichloro-N-{3-[2,2,2-trifluoro-1-(thiophen-2-yl)-ethoxy]quinoxalin-2-yl}benzenesulfonamide]",< 1000 nM
7,"O=S(=O)(Nc1nc2ccccc2nc1OC(c1ccsc1)C(F)(F)F)c1cccc(Cl)c1Cl (centres unmarked) [Compound 101, 2,3-dichloro-N-{3-[2,2,2-trifluoro-1-(thiophen-3-yl)-ethoxy]quinoxalin-2-yl}benzenesulfonamide]",< 1000 nM
8,"O=S(=O)(Nc1nc2ccccc2nc1OC(c1cc2ccccc2o1)C(F)(F)F)c1ccccc1Cl (centres unmarked) [Compound 104, 2-chloro-N-{3-[2,2,2-trifluoro-1-(benzofuran-2-yl)ethoxy]-quinoxalin-2-yl}benzenesulfonamide]",< 1000 nM

# Other lines, results leading:
row,IC50,Structure (SMILES)
1,< 1000 nM,"Cn1cncc1C(Oc1nc2ccccc2nc1NS(=O)(=O)c1cccc(Cl)c1Cl)C(F)(F)F (centres unmarked) [Compound 97, 2,3-dichloro-N-{3-[2,2,2-trifluoro-1-(1-methyl-1H-imidazol-5-yl)ethoxy]quinoxalin-2-yl}benzenesulfonamide]"
2,< 1000 nM,"O=S(=O)(Nc1nc2ccccc2nc1OC(C1CCCCC1)C(F)(F)F)c1cccc(Cl)c1Cl (centres unmarked) [Compound 102, 2,3-dichloro-N-[3-(1-cyclohexyl-2,2,2-trifluoroethoxy)-quinoxalin-2-yl]benzenesulfonamide]"
3,< 1000 nM,"Cn1c(C(Oc2nc3ccccc3nc2NS(=O)(=O)c2cccc(Cl)c2Cl)C(F)(F)F)cc2ccccc21 (centres unmarked) [Compound 103, 2,3-dichloro-N-{3-[2,2,2-trifluoro-1-(1-methyl-1H-indol-2-yl)ethoxy]quinoxalin-2-yl}benzenesulfonamide]"
4,< 1000 nM,"Cc1nc(C)c(C(Oc2nc3ccccc3nc2NS(=O)(=O)c2ccccc2Cl)C(F)(F)F)s1 (centres unmarked) [Compound 106, 2-chloro-N-{3-[2,2,2-trifluoro-1-(2,4-dimethylthiazol-5-yl)ethoxy]quinoxalin-2-yl}benzenesulfonamide]"
5,< 1000 nM,"Cc1ncsc1C(Oc1nc2ccccc2nc1NS(=O)(=O)c1ccccc1Cl)C(F)(F)F (centres unmarked) [Compound 107, 2-chloro-N-{3-[2,2,2-trifluoro-1-(4-methylthiazol-5-yl)-ethoxy]quinoxalin-2-yl}benzenesulfonamide]"
6,< 1000 nM,"CCn1cncc1C(Oc1nc2ccccc2nc1NS(=O)(=O)c1ccccc1Cl)C(F)(F)F (centres unmarked) [Compound 108, 2-chloro-N-{3-[2,2,2-trifluoro-1-(1-ethyl-1H-imidazol-5-yl)ethoxy]quinoxalin-2-yl}benzenesulfonamide]"
